What all share (experiment): Inhibition halo
What all share (format): cell-based
Conditions in all cases: positive control antibiotic 0.1 g/L

In one test the test system is Staphylococcus aureus. As for the experimental part: (§1) Routine experiments were performed comparing the inhibition halos, using an antibiotic as a positive control: carbamycin 0.1 g/L for Bacillus sp; chloramphenicol 0.1 g/L for Enterobacter aerogenes; and, ampicillin 0.1 g/L. for Salmonella sp, Staphylococcus aureus and Escherichia coli as shown in Table 7 below.
For another test, the system named is Salmonella sp. How it is done: as §1
The subject of a further test is Escherichia coli. How it is done: FIG. 7. Inhibitory effect of the composition of the invention on Escherichia coli.
as §1

The subject of a further test is Enterobacter aerogenes. As for the experimental part:
as §1

The test system of another test is Bacillus sp. How it is done:
as §1

On to `CC1(C)S[C@@H]2[C@H](NC(=O)[C@H](N)c3ccccc3)C(=O)N2[C@H]1C(=O)O` [ampicillin], for which the Inhibition halo with Staphylococcus aureus is 25 mm; with Salmonella sp, 28 mm; in the test on Escherichia coli it was 52 mm.
`O=C(N[C@H](CO)[C@H](O)c1ccc([N+](=O)[O-])cc1)C(Cl)Cl` [chloramphenicol] had an Inhibition halo in the test on Enterobacter aerogenes of 50 mm.
For carbamycin, the Inhibition halo in the test on Bacillus sp was 31 mm.

Source of the values: patent US20230000089A1, “COMPOSITION ENRICHED IN POLYPHENOLS AND FLAVONOIDS FOR USE AS BIOSTIMULANT AND ANTIMICROBIAL FOR AGRICULTURE APPLICATIONS” (BOTANITEC SPA, priority 2019, published 2023).
